Measurements: patent US4361511A, “Benzodiazepine derivatives” (Hoffmann-La Roche Inc., priority 1980, dated 1982)

Legend:
[1] = tested on: adrenalectomised rats treated with aldosterone; assay: aldosterone-antagonistic activity in adrenalectomised rats (urine volume, sodium and potassium excretion over 3 hours); assay type: in vivo, Female Holtzmann rats; conditions: for (K+) potassium excretion in %, based on control animals / (Na+) sodium excretion in %, based on control animals / Volume (urine volume) in %, based on control animals: 1 mg/kg p.o., aldosterone 4 mmg/kg s.c. 30 min later, vs animals treated only with aldosterone, urine collected 3 h
Method: If compounds of formula I are administered to the animals before the treatment with aldosterone, then there is observed, in comparison to animals treated only with aldosterone (control animals), a pronounced increase of the sodium excretion (i.e. the sodium retention caused by aldosterone is antagonised), whereas the potassium excretion and the urine volume are influenced to a lesser extent.
The standard experiment is carried out as follows:
Female Holtzmann rats (150-180 g) are bilaterally adrenalectomised 70 to 74 hours before the beginning of the experiment. After the operation, the animals receive a customary rat dry feed and 0.9 percent sodium chloride solution for drinking. 16 to 17 hours before the beginning of the experiment the feed is removed from the animals, but they can subsequently drink, as before, 0.9 percent sodium chloride solution ad libitum. At the beginning of the experiment the substance to be tested as an aldosterone-antagonist is administered to the animals by means of a stomach probe. 30 minutes later the animals receive a subcutaneous injection of 4 mmg/kg of aldosterone. After a further 90 minutes, the urinary bladders of the animals are emptied by careful suprapubic pressure, whereupon the animals are placed individually in metabolic cages without food and without drink. The urine of the animals is then collected for 3 hours, whereupon their urinary bladders are once more emptied. The spontaneously excreted urine and the remaining urine obtained at the conclusion of the experiment by pressing-out the urinary bladders are collected in graduated centrifuge glasses. Sodium and potassium concentrations in the urine are determined with a flame photometer.
(§1) The following Table contains results obtained in the previously described experiment with representative compounds of formula I. In this Table there are given for each compound in question the dosage administered (in mg/kg p.o.) as well as the percentage variation in the urine volume), the sodium excretion and the potassium excretion in comparison with the control animals (i.e. in comparison with the animals treated only with aldosterone). Moreover, the Table contains data relating to the acute toxicity of the compounds investigated (LD 50 in mg/kg in the case of a single oral administration to mice).

[2] = acute toxicity, single oral administration to mice; conditions: mouse, in vivo
From the text: as §1

[3] = in comparison to untreated animals

Structure (SMILES)	excreted urine volume after aldosterone alone [1, 3]	potassium excretion after aldosterone alone [1, 3]	sodium excretion after aldosterone alone [1, 3]	(K+) potassium excretion in %, based on control animals [1] [%]	(Na+) sodium excretion in %, based on control animals [1] [%]	Volume (urine volume) in %, based on control animals [1] [%]	LD50 [2] [mg/kg]
C[C@]12CCC(=O)C=C1CC[C@@H]1[C@@H]2[C@@H](O)C[C@]2(C=O)[C@@H](C(=O)CO)CC[C@@H]12 [aldosterone, reference compound]	reduction of the excreted urine volume	increased potassium excretion	pronounced reduction of the sodium excretion	–	–	–	–
CN1C(=O)CN=C(c2ccccc2F)c2c1cc(Cl)c(NC(=O)NCCN1CCOCC1)c2Cl [Example 6, 1-[6,8-dichloro-5-(o-fluorophenyl)-2,3-dihydro-1-methyl-2-oxo-1H-1,4-benzodiazepin-7-yl]-3-(2-morpholinoethyl)urea]	–	–	–	91	254	183	5000
CN(C)C(=O)Nc1c(Cl)cc2c(c1Cl)C(c1ccccc1F)=NCC(=O)N2C [Example 4, 3-[6,8-dichloro-5-(o-fluorophenyl)-2,3-dihydro-1-methyl-2-oxo-1H-1,4-benzodiazepin-7-yl]-1,1-dimethylurea]	–	–	–	160	330	152	2500
CN1C(=O)CN=C(c2ccccc2F)c2c1cc(Cl)c(NC(=O)N1CCN(CCO)CC1)c2Cl [Example 5, N-[6,8-dichloro-5-(o-fluorophenyl)-2,3-dihydro-1-methyl-2-oxo-1H-1,4-benzodiazepin-7-yl]-4-(2-hydroxyethyl)-1-piperazinecarboxamide]	–	–	–	120	300	173	> 5000
